Results published in US8309582B2, “Small molecule Bcl-Xl/Bcl-2 binding inhibitors” (The Ohio State University Research Foundation, priority 2004, dated 2012).

Legend:
[1] = tested on: PC-3 cells; assay: Cell viability analysis (MTT) in PC-3 cells; type: cell-based; conditions: Homo sapiens, PC-3, PC-3 cells, read-out: IC50 (μM) PC3
Experimental: Cell viability analysis. The effect of individual test agents on cell viability was assessed by using the MTT {[3-(4,5-dimethylthiazol-2-yl)-2,5-diphenyl-2H-tetrazolium bromide]} assay in six to twelve replicates. […] Controls received DMSO vehicle at a concentration equal to that in drug-treated cells. […] Supernatants were removed from the wells, and the reduced MTT dye was solubilized in 200 μl/well DMSO. Absorbance at 570 nm was determined on a plate reader.
(§1) Determination of IC50 values. Data from cell viability and FP assays were analyzed by using the CalcuSyn software (Biosoft, Ferguson, Mo.) to determine IC50 values, in which the calculation was based on the medium effect equation (18), i.e., Log(fa/fu)=m log(D)−m log(Dm) (equation 1), where fa and fu denote fraction affected and unaffected, respectively; m represents the Hill-type coefficient signifying the sigmoidicity of the dose-effect curve; D and Dm are the dose used and IC50, respectively.

[2] = WB (IC50 for WB, Tables 1-9); type: cell-based; conditions: marker, cell line and unit inferred
Experimental: Immunoblotting. Cells in T-75 flasks were collected by scraping, and suspended in 60 μl of phosphate-buffered saline (PBS). Two μl of the suspension was taken for protein analysis using the Bradford assay kit (Bio-Rad, Hercules, Calif.). To the remaining solution was added the same volume of 2×SDS-PAGE sample loading buffer (100 mM Tris-HCl, pH 6.8, 4% SDS, 5% β-mercaptoethanol 20% glycerol, and 0.1% bromophenol blue). The mixture was sonicated briefly, and boiled for 5 min. Equal amounts of proteins were loaded onto 10% SDS-PAGE gels.
After electrophoresis, protein bands were transferred to nitrocellulose membranes in a semidry transfer cell. The transblotted membrane was washed twice with Tris-buffered saline (TBS) containing 0.1% Tween 20 (TBST). After blocking with TBST containing 5% nonfat milk for 40 min, the membrane was incubated with the appropriate primary antibody in TBST-1% nonfat milk at 4° C. overnight. All primary antibodies were diluted 1:1000 in 1% nonfat milk-containing TBST. After treatment with the primary antibody, the membrane was washed three times with TBST for a total of 15 min, followed by incubation with goat anti-rabbit or anti-mouse IgG-horseradish peroxidase conjugates (diluted 1:5000) for 1 h at room temperature and three washes with TBST for a total of 1 h. The immunoblots were visualized by enhanced chemiluminescence.

[3] = MTT assay (IC50 for MTT, Tables 1-9); type: cell-based; conditions: cell line and unit inferred
Experimental: Cell viability analysis. The effect of individual test agents on cell viability was assessed by using the MTT {[3-(4,5-dimethylthiazol-2-yl)-2,5-diphenyl-2H-tetrazolium bromide]} assay in six to twelve replicates. Cells were seeded and incubated in 96-well, flat-bottomed plates in serum-free media for 24 h, and were exposed to various concentrations of test agents dissolved in DMSO (final concentration, 0.1%) in serum-free RPMI 1640 medium for different time intervals. Controls received DMSO vehicle at a concentration equal to that in drug-treated cells. The medium was removed, replaced by 200 μl of 0.5 mg/ml of MTT in 10% FBS-containing RPMI-1640 medium, and cells were incubated in the CO2 incubator at 37° C. for 2 h. Supernatants were removed from the wells, and the reduced MTT dye was solubilized in 200 μl/well DMSO. Absorbance at 570 nm was determined on a plate reader.
as §1

[4] = biological target: T1, Bcl-xL (Homo sapiens, UniProt Q07817); assay: Competitive fluorescence polarization assay, displacement of Flu-BakBH3 peptide from Bcl-xL; type: binding; conditions: unit inferred; read-out: IC50 for inhibiting BH3-mediated protein interactions (Bcl-xL)
T1 construct: fused on or other part: His tag
T1 sequence (Q07817 1-209 limits assumed): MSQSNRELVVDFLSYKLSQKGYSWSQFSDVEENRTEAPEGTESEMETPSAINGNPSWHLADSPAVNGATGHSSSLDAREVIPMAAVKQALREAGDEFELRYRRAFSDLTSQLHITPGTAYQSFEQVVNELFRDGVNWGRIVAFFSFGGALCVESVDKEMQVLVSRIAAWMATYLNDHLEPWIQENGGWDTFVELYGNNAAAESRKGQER
Experimental: (§2) Competitive Fluorescence Polarization Assay. The binding affinity of the test agent to Bcl-2 and Bcl-xL was analyzed by a competitive fluorescence polarization assay, in which the ability of the agent to displace the binding of a Bak BH3-domain peptide to either Bcl-2 or Bcl-xL was determined. Flu-BakBH3, a Bak-BH3 peptide labeled at the N-terminus with fluorescein, was purchased from Genemed Synthesis (San Francisco, Calif.). C-Terminal-truncated, His-tagged Bcl-xL was purchased from EMD Biosciences (San Diego, Calif.), and soluble GST-fused Bcl-2 was obtained from Santa Cruz (Santa Cruz, Calif.). The KD determination was carried out in a dual-pathlength quartz cell with readings taken at […] at room temperature using a luminescence spectrometer according to an established procedure (17). Determination of IC50 values. Data from cell viability and FP assays were analyzed by using the CalcuSyn software (Biosoft, Ferguson, Mo.) to determine IC50 values, in which the calculation was based on the medium effect equation (18), i.e., Log(fa/fu)=m log(D)−m log(Dm) (equation 1), where fa and fu denote fraction affected and unaffected, respectively; m represents the Hill-type coefficient signifying the sigmoidicity of the dose-effect curve; D and Dm are the dose used and IC50, respectively.

[5] = biological target: Bcl-2 (Homo sapiens, UniProt P10415); assay: Competitive fluorescence polarization assay, displacement of Flu-BakBH3 peptide from Bcl-2; type: binding; conditions: unit inferred; read-out: IC50 for inhibiting BH3-mediated protein interactions (Bcl-2)
Sequence of Bcl-2 (P10415 whole entry): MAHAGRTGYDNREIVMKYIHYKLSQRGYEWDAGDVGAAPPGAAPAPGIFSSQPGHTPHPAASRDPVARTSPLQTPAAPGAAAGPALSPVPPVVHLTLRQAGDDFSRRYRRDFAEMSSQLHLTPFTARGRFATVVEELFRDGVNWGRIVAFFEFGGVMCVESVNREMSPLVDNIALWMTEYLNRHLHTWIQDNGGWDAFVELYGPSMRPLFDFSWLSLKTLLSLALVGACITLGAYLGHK
Experimental: as §2

SMILES	IC50 [1] [µM]	IC50 [2] [µM]	IC50 [3] [µM]	IC50 [4] [µM]	IC50 [5] [µM]
CC(C)=CCOc1c(C)c(C)c2c(c1C)CCC(C)(COc1ccc(/C=C3\SC(=O)NC3=O)cc1[N+](=O)[O-])O2 (centres unmarked) [TG-35]	> 50	2.7	–	–	–
CC(C)=CCOc1c(C)c(C)c2c(c1C)CCC(C)(COc1ccc(C=C(C#N)C#N)cc1Br)O2 (centres unmarked) [TG-36]	> 50	> 7.5	> 50	–	–
CC(C)=CCOc1c(C)c(C)c2c(c1C)CCC(C)(COc1ccc(/C=C/C(=O)O)cc1Br)O2 (centres unmarked) [TG-37]	6 ± 0.7	> 7.5	–	–	–
CCOC(=O)C(C)(C)C(O)c1ccc(OCC2(C)CCc3c(C)c(OCC=C(C)C)c(C)c(C)c3O2)c(Br)c1 (centres unmarked) [TG-38]	12.5 ± 0.6	4.5	> 50	–	–
CC(C)=CCOc1c(C)c(C)c2c(c1C)CCC(C)(COc1ccc(C(O)C(C)(C)C(=O)O)cc1Br)O2 (centres unmarked) [TG-39]	7 ± 0.4	> 7.5	–	–	–
CCOC(=O)C(=Cc1ccc(OCC2(C)CCc3c(C)c(OCC=C(C)C)c(C)c(C)c3O2)c(Br)c1)C(=O)OCC (centres unmarked) [TG-41]	> 50	> 7.5	> 50	–	–
CC(C)=CCOc1c(C)c(C)c2c(c1C)CCC(C)(COc1ccc(C=C(C(=O)O)C(=O)O)cc1Br)O2 (centres unmarked) [TG-42]	16 ± 0.3	> 7.5	> 50	–	–
CC(C)=CCOc1c(C)c(C)c2c(c1C)CCC(C)(COc1ccc(/C=C3\SC(=O)NC3=O)c3ccccc13)O2 (centres unmarked) [TG-43]	3 ± 0.2	7.2	–	–	–
COc1cc(/C=C2\SC(=O)NC2=O)cc(Br)c1OCC1(C)CCc2c(C)c(OCC=C(C)C)c(C)c(C)c2O1 (centres unmarked) [TG-44]	5.1 ± 0.4	> 7.5	–	–	–
CCOc1cc(/C=C2\SC(=O)NC2=O)ccc1OCC1(C)CCc2c(C)c(OCC=C(C)C)c(C)c(C)c2O1 (centres unmarked) [TG-45]	4.6 ± 0.3	6.7	–	–	–
CC(C)=CCOc1c(C)c(C)c2c(c1C)CCC(C)(COc1ccc(/C=C3\SC(=S)NC3=O)c3ccccc13)O2 (centres unmarked) [TG-46]	5.3 ± 0.3	6.7	–	–	–
C=CCOc1c(C)c(C)c2c(c1C)CCC(C)(COc1cccc(/C=C3\SC(=O)NC3=O)c1)O2 (centres unmarked) [TG-51]	6.8 ± 0.2	4.4	40	–	–
C=CCOc1c(C)c(C)c2c(c1C)CCC(C)(COc1c(C)cc(/C=C3\SC(=O)NC3=O)cc1C)O2 (centres unmarked) [TG-52]	4.5 ± 0.2	7.5	–	–	–
C=CCOc1c(C)c(C)c2c(c1C)CCC(C)(COc1ccc(/C=C3\SC(=O)NC3=O)c3ccccc13)O2 (centres unmarked) [TG-53]	3.3 ± 0.3	3.4	–	–	–
C=CCOc1c(C)c(C)c2c(c1C)CCC(C)(COc1c(Br)cc(/C=C3\SC(=O)NC3=O)cc1OC)O2 (centres unmarked) [TG-54]	–	3.8	–	–	–
C=CCOc1c(C)c(C)c2c(c1C)CCC(C)(COc1ccc(/C=C3\SC(=O)NC3=O)cc1OCC)O2 (centres unmarked) [TG-55]	–	> 7.5	–	–	–
CC(C)=CCOc1c(C)c(C)c2c(c1C)CCC(C)(COc1ccc(/C=C3\SC(=S)NC3=O)cc1Br)O2 (centres unmarked) [TG-89]	4.4 ± 0.4	–	–	–	–
CN(CCOc1ccc(C=C2SC(O)=NC2=O)cc1)c1ccccn1 [Δ2-RG, 5-{4-[2-(methyl-pyridin-2-yl-amino)-ethoxy]-benzylidene}-thiazolidine-2,4-dione]	–	–	–	> 50	> 50
